Results as given in ChEMBL document CHEMBL1201862, “PubChem BioAssay data set” (2004).
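Assay format: 96-well plates, 48-hour exposure. The concentration for 50% growth inhibition is given as GI50.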 Calls of active or inactive are those of the source. Rule as the data show it: active = GI50 up to about 1.1 µM and inactive = higher.

What was measured:
Experiment in all cases: growth of human tumour cells (NCI), 48 h
Hs-578T = tested on: Hs-578T
SNB-75 = tested on: SNB-75
NCI/ADR-RES = tested on: NCI/ADR-RES
MCF7 = tested on: MCF7
SW-620 = tested on: SW-620
UACC-257 = tested on: UACC-257
SK-OV-3 = tested on: SK-OV-3
A498 = tested on: A498
SF-268 = tested on: SF-268
U-251 = tested on: U-251
UO-31 = tested on: UO-31
HCT-15 = tested on: HCT-15
T47D = tested on: T47D
MDA-MB-231 = tested on: MDA-MB-231
RXF 393 = tested on: RXF 393
SN12C = tested on: SN12C
NCI-H460 = tested on: NCI-H460
IGROV-1 = tested on: IGROV-1
OVCAR-4 = tested on: OVCAR-4
EKVX = tested on: EKVX
K562 = tested on: K562
DU-145 = tested on: DU-145
BT-549 = tested on: BT-549
SNB-19 = tested on: SNB-19
MDA-MB-435 = tested on: MDA-MB-435
SK-MEL-28 = tested on: SK-MEL-28
UACC-62 = tested on: UACC-62
SK-MEL-5 = tested on: SK-MEL-5
SK-MEL-2 = tested on: SK-MEL-2
NCI-H226 = tested on: NCI-H226
COLO 205 = tested on: COLO 205
HCC 2998 = tested on: HCC 2998
CCRF-CEM = tested on: CCRF-CEM
NCI-H23 = tested on: NCI-H23
786-0 = tested on: 786-0
MDA-N = tested on: MDA-N
OVCAR-3 = tested on: OVCAR-3
OVCAR-5 = tested on: OVCAR-5
CAKI-1 = tested on: CAKI-1
KM12 = tested on: KM12
SF-539 = tested on: SF-539
ACHN = tested on: ACHN
NCI-H522 = tested on: NCI-H522
HCT-116 = tested on: HCT-116
HT-29 = tested on: HT-29
OVCAR-8 = tested on: OVCAR-8
Malme-3M = tested on: Malme-3M
RPMI-8226 = tested on: RPMI-8226
HOP-62 = tested on: HOP-62
M14 = tested on: M14
MOLT-4 = tested on: MOLT-4
TK-10 = tested on: TK-10
PC-3 = tested on: PC-3
HL-60 = tested on: HL-60
A549 = tested on: A549
HOP-92 = tested on: HOP-92
SF-295 = tested on: SF-295
LOX IMVI = tested on: LOX IMVI

For `CC(O)CN1c2ccccc2Sc2ccc(Cl)cc21` (stereo not given), the GI50 (Hs-578T) was > 10 µM (inactive), the GI50 (SNB-75) was > 10 µM (inactive) and the GI50 (NCI/ADR-RES) was > 10 µM (inactive). For the same compound, the GI50 (MCF7) was > 10 µM (inactive), the GI50 (SW-620) was > 10 µM (inactive) and the GI50 (UACC-257) was > 10 µM (inactive). The GI50 (SK-OV-3) was > 10 µM (inactive), the GI50 (A498) was > 10 µM (inactive) and the GI50 (SF-268) was > 10 µM (inactive). For the same compound, the GI50 (U-251) was > 10 µM (inactive), the GI50 (UO-31) was > 10 µM (inactive) and the GI50 (HCT-15) was > 10 µM. The GI50 (T47D) was > 10 µM (inactive), the GI50 (MDA-MB-231) was > 10 µM (inactive) and the GI50 (RXF 393) was > 10 µM (inactive). For the same compound, the GI50 (SN12C) was > 10 µM (inactive), the GI50 (NCI-H460) was > 10 µM (inactive) and the GI50 (IGROV-1) was > 10 µM (inactive). For the same compound, the GI50 (OVCAR-4) was > 10 µM (inactive), the GI50 (EKVX) was > 10 µM (inactive) and the GI50 (K562) was > 10 µM (inactive). For the same compound, the GI50 (DU-145) was > 10 µM (inactive), the GI50 (BT-549) was > 10 µM (inactive) and the GI50 (SNB-19) was > 10 µM (inactive). The GI50 (MDA-MB-435) was > 10 µM (inactive), the GI50 (SK-MEL-28) was > 10 µM (inactive) and the GI50 (UACC-62) was > 10 µM (inactive). The GI50 (SK-MEL-5) was > 10 µM (inactive), the GI50 (SK-MEL-2) was > 10 µM (inactive) and the GI50 (NCI-H226) was > 10 µM (inactive). For the same compound, the GI50 (COLO 205) was > 10 µM (inactive), the GI50 (HCC 2998) was > 10 µM (inactive) and the GI50 (CCRF-CEM) was > 10 µM (inactive). For the same compound, the GI50 (NCI-H23) was > 10 µM (inactive), the GI50 (786-0) was > 10 µM (inactive) and the GI50 (MDA-N) was > 10 µM (inactive). For the same compound, the GI50 (OVCAR-3) was > 10 µM (inactive), the GI50 (OVCAR-5) was > 10 µM (inactive) and the GI50 (CAKI-1) was > 10 µM (inactive). For the same compound, the GI50 (KM12) was > 10 µM (inactive), the GI50 (SF-539) was > 10 µM (inactive) and the GI50 (ACHN) was > 10 µM (inactive). For the same compound, the GI50 (NCI-H522) was > 10 µM (inactive), the GI50 (HCT-116) was > 10 µM (inactive) and the GI50 (HT-29) was > 10 µM (inactive). The GI50 (OVCAR-8) was > 10 µM (inactive), the GI50 (Malme-3M) was > 10 µM (inactive) and the GI50 (RPMI-8226) was > 10 µM (inactive). The GI50 (HOP-62) was > 10 µM (inactive), the GI50 (M14) was > 10 µM (inactive) and the GI50 (MOLT-4) was > 10 µM (inactive). The GI50 (TK-10) was > 10 µM (inactive), the GI50 (PC-3) was > 10 µM (inactive) and the GI50 (HL-60) was > 10 µM (inactive). For the same compound, the GI50 (A549) was > 10 µM (inactive), the GI50 (HOP-92) was > 10 µM (inactive) and the GI50 (SF-295) was > 10 µM (inactive). For the same compound, the GI50 (LOX IMVI) was > 10 µM (inactive).
`CC(C)(C)OC(=O)NCCC(=O)NC1(c2cc3ccccc3s2)CCCCC1` was tested, and the GI50 (Hs-578T) was 28.1 µM (inactive), the GI50 (SNB-75) was 17.4 µM (inactive) and the GI50 (NCI/ADR-RES) was 18.1 µM (inactive). The GI50 (MCF7) was 17.5 µM (inactive), the GI50 (SW-620) was 22.6 µM (inactive) and the GI50 (UACC-257) was 19.1 µM (inactive). For the same compound, the GI50 (SK-OV-3) was 24.4 µM (inactive), the GI50 (A498) was 22.9 µM (inactive) and the GI50 (U-251) was 19.3 µM (inactive). The GI50 (UO-31) was 16.1 µM (inactive), the GI50 (HCT-15) was 15.1 µM and the GI50 (T47D) was 8.05 µM (inactive). For the same compound, the GI50 (MDA-MB-231) was 19.1 µM (inactive), the GI50 (RXF 393) was 12.8 µM (inactive) and the GI50 (SN12C) was 18.3 µM (inactive). For the same compound, the GI50 (NCI-H460) was 14.8 µM (inactive), the GI50 (IGROV-1) was 17.3 µM (inactive) and the GI50 (OVCAR-4) was 13.4 µM (inactive). The GI50 (EKVX) was 20.9 µM (inactive), the GI50 (K562) was 12.3 µM (inactive) and the GI50 (DU-145) was 16.7 µM (inactive). The GI50 (BT-549) was 16.9 µM (inactive), the GI50 (SNB-19) was 17.4 µM (inactive) and the GI50 (MDA-MB-435) was 17.3 µM (inactive). For the same compound, the GI50 (SK-MEL-28) was 19.1 µM (inactive), the GI50 (UACC-62) was 20.6 µM (inactive) and the GI50 (SK-MEL-5) was 13.1 µM (inactive). The GI50 (SK-MEL-2) was 18 µM (inactive), the GI50 (NCI-H226) was 21.3 µM (inactive) and the GI50 (COLO 205) was 17.5 µM (inactive). The GI50 (HCC 2998) was 23.2 µM (inactive), the GI50 (CCRF-CEM) was 12.5 µM (inactive) and the GI50 (NCI-H23) was 15.5 µM (inactive). The GI50 (786-0) was 17.5 µM (inactive), the GI50 (MDA-N) was 17.6 µM (inactive) and the GI50 (OVCAR-3) was 15.6 µM (inactive). The GI50 (OVCAR-5) was 19.7 µM (inactive), the GI50 (CAKI-1) was 21.2 µM (inactive) and the GI50 (KM12) was 18.7 µM (inactive). The GI50 (SF-539) was 15 µM (inactive), the GI50 (ACHN) was 24.5 µM (inactive) and the GI50 (NCI-H522) was 12.5 µM (inactive). The GI50 (HCT-116) was 13.9 µM (inactive), the GI50 (HT-29) was 13.8 µM (inactive) and the GI50 (OVCAR-8) was 17.5 µM (inactive). For the same compound, the GI50 (Malme-3M) was 21.5 µM (inactive), the GI50 (RPMI-8226) was 0.759 µM (active) and the GI50 (HOP-62) was 18.4 µM (inactive). For the same compound, the GI50 (M14) was 18.4 µM (inactive), the GI50 (MOLT-4) was 10.9 µM (inactive) and the GI50 (TK-10) was 29 µM (inactive). The GI50 (PC-3) was 18.5 µM (inactive), the GI50 (HL-60) was 16.7 µM (inactive) and the GI50 (A549) was 15.9 µM (inactive). The GI50 (HOP-92) was 16.6 µM (inactive), the GI50 (SF-295) was 18.4 µM (inactive) and the GI50 (LOX IMVI) was 18.2 µM (inactive).
